Source: ChEMBL document CHEMBL2046378, “Investigation of chalcones as selective inhibitors of the breast cancer resistance protein: critical role of methoxylation in both inhibition potency and cytotoxicity” (J Med Chem, 2012)

Tests used:
[1] = target: ATP-dependent translocase ABCB1 (Homo sapiens, UniProt P08183); experiment: Inhibition of ABCB1-mediated mitoxantrone efflux expressed in HEK293 cells at 10 uM after 48 hrs by flow cytometric analysis; format: cell-based; details: hek293, 48 h
[2] = Cytotoxicity against human HEK293 cells transfected with ABCG2 after 72 hrs by MTT assay; format: ADME, cell-based; details: read-out: IG50
[3] = target: Multidrug resistance-associated protein 1 (Homo sapiens, UniProt P33527); experiment: Inhibition of ABCC1-mediated calcein transport expressed in human HEK293 cells at 10 uM after 48 hrs by flow cytometric analysis; format: cell-based; details: hek293, 48 h
Sequence of Multidrug resistance-associated protein 1 (P33527 whole entry): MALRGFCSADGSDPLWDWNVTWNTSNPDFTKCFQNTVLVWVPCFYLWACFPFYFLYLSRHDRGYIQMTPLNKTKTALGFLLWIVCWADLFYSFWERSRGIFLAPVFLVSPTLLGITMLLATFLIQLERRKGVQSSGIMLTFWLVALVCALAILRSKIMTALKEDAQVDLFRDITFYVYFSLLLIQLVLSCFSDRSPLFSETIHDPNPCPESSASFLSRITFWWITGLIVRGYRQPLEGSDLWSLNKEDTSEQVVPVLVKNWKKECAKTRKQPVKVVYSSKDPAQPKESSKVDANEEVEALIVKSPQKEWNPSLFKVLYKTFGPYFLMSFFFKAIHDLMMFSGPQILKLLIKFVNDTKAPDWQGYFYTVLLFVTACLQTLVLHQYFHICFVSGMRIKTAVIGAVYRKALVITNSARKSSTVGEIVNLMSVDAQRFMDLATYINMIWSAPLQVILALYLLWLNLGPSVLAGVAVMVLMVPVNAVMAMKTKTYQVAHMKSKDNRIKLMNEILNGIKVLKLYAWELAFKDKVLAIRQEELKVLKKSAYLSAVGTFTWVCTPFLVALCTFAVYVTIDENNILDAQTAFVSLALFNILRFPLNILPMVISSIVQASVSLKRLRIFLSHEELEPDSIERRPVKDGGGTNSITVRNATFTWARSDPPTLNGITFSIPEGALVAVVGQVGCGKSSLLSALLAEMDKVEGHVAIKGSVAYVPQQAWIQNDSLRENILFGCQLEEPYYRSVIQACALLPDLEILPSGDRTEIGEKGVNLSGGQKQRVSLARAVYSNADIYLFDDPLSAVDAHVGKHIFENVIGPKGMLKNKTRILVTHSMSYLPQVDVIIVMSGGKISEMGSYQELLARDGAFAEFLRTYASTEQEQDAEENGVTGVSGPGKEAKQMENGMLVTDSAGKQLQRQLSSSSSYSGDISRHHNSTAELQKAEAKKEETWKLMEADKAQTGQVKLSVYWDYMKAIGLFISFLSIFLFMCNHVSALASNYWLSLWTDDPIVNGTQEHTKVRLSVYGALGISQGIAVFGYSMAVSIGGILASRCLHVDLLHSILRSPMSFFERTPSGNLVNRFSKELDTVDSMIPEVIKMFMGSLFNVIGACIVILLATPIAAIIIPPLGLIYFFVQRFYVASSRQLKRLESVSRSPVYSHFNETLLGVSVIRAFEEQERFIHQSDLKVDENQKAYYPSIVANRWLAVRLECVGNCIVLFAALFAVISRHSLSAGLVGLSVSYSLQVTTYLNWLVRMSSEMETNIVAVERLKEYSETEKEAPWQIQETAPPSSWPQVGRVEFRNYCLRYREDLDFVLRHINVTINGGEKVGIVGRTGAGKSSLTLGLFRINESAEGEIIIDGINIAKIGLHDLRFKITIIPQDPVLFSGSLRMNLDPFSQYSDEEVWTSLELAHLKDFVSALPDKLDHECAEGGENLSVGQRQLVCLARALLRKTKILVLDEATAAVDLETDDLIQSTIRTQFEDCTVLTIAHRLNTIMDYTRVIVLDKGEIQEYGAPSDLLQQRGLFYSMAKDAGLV

[4] = system: ABCG2; experiment: Therapeutic index, ratio of IG50 for HEK293 cells to IC50 for ABCG2; format: cell-based; details: human, read-out: TI
[5] = target: T1, ABCG2 (Homo sapiens, UniProt Q9UNQ0); experiment: Inhibition of ABCG2-mediated mitoxantrone efflux expressed in HEK293 cells at 2 uM after 48 hrs by flow cytometric analysis; format: cell-based; details: HEK293 cells expressing ABCG2, probe mitoxantrone
T1 sequence (Q9UNQ0 whole entry): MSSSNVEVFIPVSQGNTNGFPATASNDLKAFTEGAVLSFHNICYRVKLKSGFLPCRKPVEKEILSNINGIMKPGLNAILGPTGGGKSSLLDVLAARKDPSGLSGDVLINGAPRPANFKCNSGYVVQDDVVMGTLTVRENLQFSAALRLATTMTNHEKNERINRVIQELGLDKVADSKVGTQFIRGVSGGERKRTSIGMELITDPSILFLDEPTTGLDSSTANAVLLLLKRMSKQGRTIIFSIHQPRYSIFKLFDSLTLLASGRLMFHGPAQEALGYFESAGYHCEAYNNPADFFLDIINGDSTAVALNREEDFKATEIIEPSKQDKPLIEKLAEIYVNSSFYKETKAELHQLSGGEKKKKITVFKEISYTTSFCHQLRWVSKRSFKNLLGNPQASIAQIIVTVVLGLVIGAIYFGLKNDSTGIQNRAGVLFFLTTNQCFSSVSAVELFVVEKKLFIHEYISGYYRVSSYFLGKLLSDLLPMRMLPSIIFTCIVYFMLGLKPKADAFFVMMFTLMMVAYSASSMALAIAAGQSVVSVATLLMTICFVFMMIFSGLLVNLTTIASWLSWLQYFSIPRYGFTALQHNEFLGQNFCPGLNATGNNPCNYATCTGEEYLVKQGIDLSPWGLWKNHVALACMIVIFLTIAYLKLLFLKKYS

[6] = target: T2, Broad substrate specificity ATP-binding cassette transporter ABCG2 (Homo sapiens, UniProt Q9UNQ0); experiment: Inhibition of ABCG2-mediated mitoxantrone efflux expressed in HEK293 cells after 48 hrs by flow cytometric analysis; format: cell-based
T2 sequence (Q9UNQ0 whole entry): T1 sequence (Q9UNQ0 whole entry)

[7] = system: HEK293; experiment: Cytotoxicity against human HEK293 cells transfected with ABCG2 up to 100 uM after 72 hrs by MTT assay; format: ADME, cell-based; details: hek293, 72 h
[8] = target: T1, ABCG2; experiment: Inhibition of ABCG2-mediated mitoxantrone efflux expressed in HEK293 cells at 10 uM after 48 hrs by flow cytometric analysis; format: cell-based; details: HEK293 cells expressing ABCG2, probe mitoxantrone
[9] = target: T1, ABCG2; experiment: Inhibition of ABCG2-mediated mitoxantrone efflux expressed in HEK293 cells at 5 uM after 48 hrs by flow cytometric analysis; format: cell-based; details: HEK293 cells expressing ABCG2, probe mitoxantrone

Sequence of ATP-dependent translocase ABCB1 (P08183 whole entry): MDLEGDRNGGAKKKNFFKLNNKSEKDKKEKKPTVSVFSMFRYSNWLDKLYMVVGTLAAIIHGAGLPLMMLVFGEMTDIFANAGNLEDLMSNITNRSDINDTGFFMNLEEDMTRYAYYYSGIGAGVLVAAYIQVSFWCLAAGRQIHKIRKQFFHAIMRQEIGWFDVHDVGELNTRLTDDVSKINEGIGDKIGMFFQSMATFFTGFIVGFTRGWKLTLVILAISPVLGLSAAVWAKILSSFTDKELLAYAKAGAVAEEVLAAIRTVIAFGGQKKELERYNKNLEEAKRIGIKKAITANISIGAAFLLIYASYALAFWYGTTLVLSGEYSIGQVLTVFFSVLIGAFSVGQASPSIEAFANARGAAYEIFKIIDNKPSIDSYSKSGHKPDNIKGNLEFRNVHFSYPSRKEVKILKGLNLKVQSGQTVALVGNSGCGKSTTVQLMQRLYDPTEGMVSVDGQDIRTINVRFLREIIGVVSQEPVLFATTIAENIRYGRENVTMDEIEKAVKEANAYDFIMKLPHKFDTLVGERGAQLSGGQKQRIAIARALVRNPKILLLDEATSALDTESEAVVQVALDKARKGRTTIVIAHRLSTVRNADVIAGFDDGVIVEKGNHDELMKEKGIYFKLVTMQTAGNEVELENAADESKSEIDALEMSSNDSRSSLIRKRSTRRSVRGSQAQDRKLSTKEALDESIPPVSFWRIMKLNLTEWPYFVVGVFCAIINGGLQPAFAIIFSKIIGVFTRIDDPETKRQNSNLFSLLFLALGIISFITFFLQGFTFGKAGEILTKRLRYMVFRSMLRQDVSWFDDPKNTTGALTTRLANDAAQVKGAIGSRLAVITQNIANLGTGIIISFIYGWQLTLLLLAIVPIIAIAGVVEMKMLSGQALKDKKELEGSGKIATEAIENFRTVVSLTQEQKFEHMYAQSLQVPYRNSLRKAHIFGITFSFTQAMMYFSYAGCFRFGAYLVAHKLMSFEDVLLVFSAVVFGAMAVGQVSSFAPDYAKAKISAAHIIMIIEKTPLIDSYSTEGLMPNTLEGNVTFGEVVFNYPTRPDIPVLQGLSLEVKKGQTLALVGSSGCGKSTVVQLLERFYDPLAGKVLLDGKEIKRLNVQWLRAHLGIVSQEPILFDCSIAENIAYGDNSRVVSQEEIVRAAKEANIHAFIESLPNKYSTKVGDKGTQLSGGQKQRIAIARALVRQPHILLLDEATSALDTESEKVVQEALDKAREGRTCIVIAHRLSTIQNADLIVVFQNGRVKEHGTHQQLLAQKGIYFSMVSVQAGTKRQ

SMILES | inhibition (INH) [1] | GI50 at 72 h [2] | inhibition (INH) [3] | selectivity ratio [4] | inhibition at 48 h, 2 µM [5] | IC50 [6] | Activity [7] | inhibition at 48 h, 10 µM [8] | inhibition at 48 h, 5 µM [9]
COc1cccc(OC)c1/C=C/C(=O)c1cn(C)c2ccccc12 | Not Active | 50000 nM | Not Active | 185 | 104% | 270 nM | Non-toxic | 113% | –
COc1ccc(C(=O)/C=C/c2ccc(OC)c(OC)c2)c(O)c1 | – | – | – | – | 71.1% | – | – | 76.5% | –
COc1cc(/C=C/C(=O)c2c(O)cc(OC)cc2OC)cc(OC)c1 | Not Active | 6000 nM | Not Active | – | – | 170 nM | Non-toxic | – | –
COc1cccc(/C=C/C(=O)c2c(O)cc(OC)cc2OC)c1 | Not Active | 10000 nM | Not Active | – | – | 260 nM | Non-toxic | – | –
COc1ccc(C(=O)/C=C/c2cn(C)c3ccccc23)cc1 | – | – | – | – | 55.5% | – | – | 89% | –
COc1cc(OC)c(C(=O)/C=C/c2cn(C)c3ccccc23)c(OC)c1 | – | – | – | – | 3.7% | – | – | 30% | –
COc1cc(/C=C/C(=O)c2cn(C)c3ccccc23)cc(OC)c1OC | – | – | – | – | 49.3% | – | – | 70% | –
COc1ccc(C(=O)/C=C/c2cn(C)c3ccccc23)c(OC)c1 | – | – | – | – | 88.2% | – | – | 125% | –
COc1ccc(/C=C/C(=O)c2cn(C)c3ccccc23)c(OC)c1 | – | – | – | – | 83.8% | – | – | 108% | –
COc1cc(OC)c(/C=C/C(=O)c2cn(C)c3ccccc23)c(OC)c1 | Not Active | 4000 nM | Not Active | 9 | 93.8% | 450 nM | Non-toxic | 109% | –
COc1cc(OC)c(/C=C/C(=O)c2cn(C)c3ccc(OC)cc23)c(OC)c1 | Not Active | 1000 nM | Not Active | 3 | 89.1% | 350 nM | Non-toxic | 111% | –
Cn1cc(/C=C/C(=O)c2cn(C)c3ccccc23)c2ccccc21 | – | – | – | – | 52.1% | – | – | 98.8% | –
COc1cccc(OC)c1C(=O)/C=C/c1cn(C)c2ccccc12 | – | – | – | – | 2.9% | – | – | 17.4% | –
COc1cc(O)c(C(=O)/C=C/c2c(OC)cccc2OC)c(OC)c1 | Not Active | 50000 nM | Not Active | – | – | 350 nM | Non-toxic | – | –
COc1cc2c(cc1OC)CN(CCc1ccc(NC(=O)c3cccc4c(=O)c5cccc(OC)c5[nH]c34)cc1)CC2 | – | – | – | – | – | – | – | – | 100%
